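Cultured in 96-well plates, cells were exposed to test compound for 48 hours across five concentrations. GI50: concentration for 50% inhibition of growth.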 Activity calls are given as the source filed them. Cut-off read from the data, not from the text of the source: active = GI50 up to about 1.1 µM and inactive = higher. Where a SMILES comes first, the peptide text is derived from it. [ ]: non-standard residue; d: D form. The star is where a group is joined. ξ: configuration not given here. X38 = O=C(OCc1ccccc1)[C@@H]1CCC[C@H]1N*; Fmoc = O=C(OCC1c2ccccc2-c2ccccc21)*; ξW = NC(Cc1c[nH]c2ccccc12)C(=O)O; ξF = NC(Cc1ccccc1)C(=O)O; Boc = CC(C)(C)OC(=O)*; ξK = NCCCCC(N)C(=O)O; ξT = CC(O)C(N)C(=O)O; tBu = CC(C)(C)*; CH2Cl = ClC*
Assays:
Experiment in all cases: growth of human tumour cells (NCI), 48 h
[1] = tested on: UO-31
[2] = tested on: OVCAR-8
[3] = tested on: ACHN
[4] = tested on: OVCAR-4
[5] = tested on: OVCAR-5
[6] = tested on: NCI-H226
[7] = tested on: SW-620
[8] = tested on: K562
[9] = tested on: SNB-75
[10] = tested on: NCI-H23
[11] = tested on: COLO 205
[12] = tested on: DU-145
[13] = tested on: SK-MEL-5
[14] = tested on: HOP-62
[15] = tested on: MOLT-4
[16] = tested on: MCF7
[17] = tested on: HCT-15
[18] = tested on: NCI-H460
[19] = tested on: MDA-N
[20] = tested on: DLD-1

Row | Compound | GI50 [1] | GI50 [2] | GI50 [3] | GI50 [4] | GI50 [5] | GI50 [6] | GI50 [7] | GI50 [8] | GI50 [9] | GI50 [10] | GI50 [11] | GI50 [12] | GI50 [13] | GI50 [14] | GI50 [15] | GI50 [16] | GI50 [17] [µM] | GI50 [18] | GI50 [19] | GI50 [20]
1 | O=C(NNC(=O)c1ccccc1SSc1ccccc1C(=O)NNC(=O)c1ccccc1S)c1ccccc1S | 9.95 µM (inactive) | 16.3 µM (inactive) | 19.3 µM (inactive) | 31.1 µM (inactive) | 44.5 µM (inactive) | 42.4 µM (inactive) | 12 µM (inactive) | 11.3 µM (inactive) | 11.7 µM (inactive) | 12.3 µM (inactive) | 36.4 µM (inactive) | 6.55 µM (inactive) | 39.7 µM (inactive) | 25.9 µM (inactive) | 6 µM (inactive) | 15.2 µM (inactive) | 9.16 | 10.4 µM (inactive) | 20 µM (inactive) | –
2 | C[C@]12CCC(=O)C=C1CC[C@@H]1C2CC[C@]2(C)Nc3c(cnn3-c3ccccc3)CC12 (stereo partly specified) | > 100 µM (inactive) | > 100 µM (inactive) | > 100 µM (inactive) | > 100 µM (inactive) | > 100 µM (inactive) | > 100 µM (inactive) | > 100 µM (inactive) | > 100 µM (inactive) | 39.1 µM (inactive) | > 100 µM (inactive) | – | – | > 100 µM (inactive) | > 100 µM (inactive) | > 100 µM (inactive) | – | > 100 | > 100 µM (inactive) | – | > 100 µM (inactive)
3 | C=C1CC2(CCS(=O)(=O)c3ccccc32)OC1=O (stereo unspecified) | 13.2 µM (inactive) | – | 11.5 µM (inactive) | 13.7 µM (inactive) | 14.3 µM (inactive) | 10.9 µM (inactive) | 3.01 µM (inactive) | 4.04 µM (inactive) | – | 12 µM (inactive) | 2.99 µM (inactive) | – | 12.4 µM (inactive) | 18.3 µM (inactive) | 3.49 µM (inactive) | – | 11.9 | 18.5 µM (inactive) | – | 12.5 µM (inactive)
4 | CCC1CN2CCc3cc(OC)c(OC)cc3C2CC1CC1c2cc(OC)c(OC)cc2CCN1C(=O)C1CCCN1 (stereo unspecified) | 21.5 µM (inactive) | 38.8 µM (inactive) | 28.7 µM (inactive) | 25.5 µM (inactive) | 53 µM (inactive) | 31.3 µM (inactive) | 28.8 µM (inactive) | 20.5 µM (inactive) | 26 µM (inactive) | 32.5 µM (inactive) | 13 µM (inactive) | – | 17.3 µM (inactive) | 32.5 µM (inactive) | 32.4 µM (inactive) | – | 31.7 | 25.9 µM (inactive) | – | 30.1 µM (inactive)
5 | CCOc1ccc(NC(=O)CC2C(=O)Nc3ccccc3S2(=O)=O)cc1 (stereo unspecified) | > 100 µM (inactive) | 39.4 µM (inactive) | > 100 µM (inactive) | > 100 µM (inactive) | > 100 µM (inactive) | 34.3 µM (inactive) | > 100 µM (inactive) | > 100 µM (inactive) | 18.1 µM (inactive) | > 100 µM (inactive) | > 100 µM (inactive) | – | – | 41.1 µM (inactive) | > 100 µM (inactive) | – | > 100 | > 100 µM (inactive) | – | > 100 µM (inactive)
6 | COc1c(C)c(O)c2c(c1C)OC(c1ccccc1)CC2=O (stereo unspecified) | 61.7 µM (inactive) | 62.4 µM (inactive) | 51.9 µM (inactive) | 67.9 µM (inactive) | 61.8 µM (inactive) | 38.9 µM (inactive) | 64.4 µM (inactive) | 35.1 µM (inactive) | 65 µM (inactive) | 42.5 µM (inactive) | – | – | > 10 µM (inactive) | > 100 µM (inactive) | 31.8 µM (inactive) | – | 30.5 | 36.8 µM (inactive) | – | 66.1 µM (inactive)
7 | COc1nc(C(=O)O)c(Cl)c(OC)c1Cl | > 100 µM (inactive) | > 100 µM (inactive) | > 100 µM (inactive) | > 100 µM (inactive) | > 100 µM (inactive) | – | > 100 µM (inactive) | > 10 µM (inactive) | – | > 100 µM (inactive) | > 100 µM (inactive) | – | > 100 µM (inactive) | > 100 µM (inactive) | > 100 µM (inactive) | – | – | > 100 µM (inactive) | – | > 100 µM (inactive)
8 | COCCOc1cc(C)cc(/C=C(C)/C=C/C2=C(C)CCCC2(C)C)n1 | > 100 µM (inactive) | 60.7 µM (inactive) | 84.3 µM (inactive) | 59.2 µM (inactive) | > 100 µM (inactive) | 32.1 µM (inactive) | 59.7 µM (inactive) | – | > 100 µM (inactive) | 58.9 µM (inactive) | 54 µM (inactive) | – | 17.3 µM (inactive) | > 100 µM (inactive) | 13.3 µM (inactive) | – | – | 88.7 µM (inactive) | – | > 100 µM (inactive)
9 | O=C(Nc1ccccc1[N+](=O)[O-])c1ccccc1 | 61.7 µM (inactive) | > 100 µM (inactive) | > 100 µM (inactive) | 82.6 µM (inactive) | > 100 µM (inactive) | 83.8 µM (inactive) | > 100 µM (inactive) | > 100 µM (inactive) | 65.3 µM (inactive) | > 100 µM (inactive) | > 100 µM (inactive) | – | > 100 µM (inactive) | 67.5 µM (inactive) | 53 µM (inactive) | – | > 100 | > 100 µM (inactive) | – | 72.3 µM (inactive)
10 | COc1ccc(C)cc1-c1ccc(-c2cc(C)ccc2OC)o1 | > 100 µM (inactive) | > 100 µM (inactive) | > 100 µM (inactive) | > 100 µM (inactive) | 87.1 µM (inactive) | > 100 µM (inactive) | > 100 µM (inactive) | > 100 µM (inactive) | > 100 µM (inactive) | > 100 µM (inactive) | > 100 µM (inactive) | – | – | > 100 µM (inactive) | > 100 µM (inactive) | – | > 100 | > 100 µM (inactive) | – | > 100 µM (inactive)
11 | CCOC(=O)C(=O)Nc1ccccc1OCC | 92.9 µM (inactive) | > 100 µM (inactive) | > 100 µM (inactive) | > 100 µM (inactive) | > 100 µM (inactive) | > 100 µM (inactive) | > 100 µM (inactive) | > 100 µM (inactive) | – | > 100 µM (inactive) | – | – | > 100 µM (inactive) | > 100 µM (inactive) | > 100 µM (inactive) | – | – | > 100 µM (inactive) | – | > 100 µM (inactive)
12 | CC(=O)NC1=C(NCCO)C(=O)c2ccccc2C1=O | > 50 µM (inactive) | > 50 µM (inactive) | > 50 µM (inactive) | > 50 µM (inactive) | – | > 50 µM (inactive) | > 50 µM (inactive) | > 50 µM (inactive) | > 50 µM (inactive) | > 50 µM (inactive) | > 50 µM (inactive) | – | 29.9 µM (inactive) | > 50 µM (inactive) | > 50 µM (inactive) | – | > 50 | > 50 µM (inactive) | – | > 50 µM (inactive)
13 | FC(F)(F)c1nc(-c2ccccc2)oc1Sc1nnc(Sc2oc(-c3ccccc3)nc2C(F)(F)F)s1 | > 100 µM (inactive) | 22.7 µM (inactive) | > 82.2 µM (inactive) | 14.7 µM (inactive) | > 100 µM (inactive) | – | > 60.3 µM (inactive) | 24 µM (inactive) | 37.8 µM (inactive) | 24.2 µM (inactive) | 41.1 µM (inactive) | – | 14.4 µM (inactive) | > 100 µM (inactive) | 6.84 µM (inactive) | – | 25.3 | > 100 µM (inactive) | – | 36.4 µM (inactive)
14 | CN1N=CSC12C(=O)N(c1ccccc1)C(=O)N2c1ccccc1 (stereo unspecified) | > 100 µM (inactive) | > 100 µM (inactive) | > 100 µM (inactive) | 82.2 µM (inactive) | > 100 µM (inactive) | – | > 100 µM (inactive) | > 100 µM (inactive) | > 100 µM (inactive) | > 100 µM (inactive) | > 100 µM (inactive) | – | > 100 µM (inactive) | > 100 µM (inactive) | > 100 µM (inactive) | – | > 100 | > 100 µM (inactive) | – | > 100 µM (inactive)
15 | COc1ccc(/C=C/C(=O)c2sc(NC(=S)NC(=O)c3ccccc3F)nc2C)cc1OC | 37.3 µM (inactive) | > 100 µM (inactive) | > 100 µM (inactive) | – | > 100 µM (inactive) | – | > 100 µM (inactive) | > 100 µM (inactive) | 26.5 µM (inactive) | > 100 µM (inactive) | 51.5 µM (inactive) | – | 88.3 µM (inactive) | > 100 µM (inactive) | 65.6 µM (inactive) | – | > 100 | > 100 µM (inactive) | – | > 100 µM (inactive)
16 | CC(=O)NC(CC(C)C)C(=O)NC(Cc1ccccc1)C(=O)CCl (stereo not drawn) (Ac-Leu-Phe-CH2Cl; configuration not given here) | 14.6 µM (inactive) | 4.69 µM (inactive) | 11.1 µM (inactive) | 18.3 µM (inactive) | 17.5 µM (inactive) | 21.6 µM (inactive) | 2.67 µM (inactive) | 1.63 µM (inactive) | 14.1 µM (inactive) | 13.1 µM (inactive) | 5.43 µM (inactive) | 12.1 µM (inactive) | 8.02 µM (inactive) | 18.3 µM (inactive) | 1.84 µM (inactive) | 5.04 µM (inactive) | 3.16 | 20.8 µM (inactive) | 9.68 µM (inactive) | –
17 | CC(OC(C)(C)C)C(NC(=O)C(CCCCNC(=O)OC(C)(C)C)NC(=O)C(Cc1c[nH]c2ccccc12)NC(=O)C(Cc1ccccc1)NC(=O)OCC1c2ccccc2-c2ccccc21)C(=O)NC(Cc1ccccc1)C(=O)N[C@@H]1CCC[C@H]1C(=O)OCc1ccccc1 (stereo partly specified) (Fmoc-[ξF][ξW][ξK](Boc)[ξT](tBu)[ξF]-X38) | > 100 µM (inactive) | > 100 µM (inactive) | > 100 µM (inactive) | > 100 µM (inactive) | > 100 µM (inactive) | > 100 µM (inactive) | > 100 µM (inactive) | > 100 µM (inactive) | > 100 µM (inactive) | > 100 µM (inactive) | > 100 µM (inactive) | > 100 µM (inactive) | 14.6 µM (inactive) | > 100 µM (inactive) | > 100 µM (inactive) | > 100 µM (inactive) | > 100 | > 100 µM (inactive) | > 100 µM (inactive) | –

Reference: ChEMBL document CHEMBL1201862, “PubChem BioAssay data set” (2004)
